US5149779A, “Humoral hypercalcemic factor antagonists” (Merck & Co., Inc., priority 1990, dated 1992)

Target: T1, human osteosarcoma cell line, B10 (Homo sapiens, UniProt Q03431)
T1 construct: analyzed in a human osteosarcoma cell line, B10; endogenous in cells; host or cells: human osteosarcoma cell line B10
T1 sequence (Q03431 27-593): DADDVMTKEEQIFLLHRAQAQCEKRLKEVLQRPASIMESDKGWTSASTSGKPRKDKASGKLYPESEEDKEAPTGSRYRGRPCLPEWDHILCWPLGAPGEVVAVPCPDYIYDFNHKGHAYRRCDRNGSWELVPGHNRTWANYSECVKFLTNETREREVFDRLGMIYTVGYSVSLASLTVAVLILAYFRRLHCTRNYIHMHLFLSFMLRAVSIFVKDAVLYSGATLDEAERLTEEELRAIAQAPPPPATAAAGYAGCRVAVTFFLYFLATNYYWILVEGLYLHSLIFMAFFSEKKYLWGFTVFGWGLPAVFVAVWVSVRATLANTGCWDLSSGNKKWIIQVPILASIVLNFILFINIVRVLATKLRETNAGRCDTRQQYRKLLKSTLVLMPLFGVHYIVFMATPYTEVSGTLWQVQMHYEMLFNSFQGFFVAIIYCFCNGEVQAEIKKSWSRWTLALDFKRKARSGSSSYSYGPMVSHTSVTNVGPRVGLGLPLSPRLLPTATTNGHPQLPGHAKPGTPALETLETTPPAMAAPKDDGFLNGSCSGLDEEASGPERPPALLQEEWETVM
Test: Human bone cell (B10) adenylate cyclase assay
Format: cell-based
Method: HCF analogues were analyzed in a human osteosarcoma cell line, B10, for the ability to inhibit cAMP stimulation by 1 nM [Nle^8,18,Tyr^34 ]bPTH(1-34)NH2 by the method described by R. J. Majeska et al., Endocrinol., 107: 1494 (1980).

SMILES: CC[C@H](C)[C@H](NC(=O)[C@H](CC(C)C)NC(=O)[C@H](Cc1c[nH]cn1)NC(=O)[C@H](Cc1c[nH]cn1)NC(=O)[C@H](CC(C)C)NC(=O)[C@H](Cc1ccccc1)NC(=O)[C@H](Cc1ccccc1)NC(=O)[C@H](CCCNC(=N)N)NC(=O)[C@H](CCCNC(=N)N)NC(=O)[C@H](CCCNC(=N)N)NC(=O)[C@H](CC(C)C)NC(=O)[C@@H]1CC(=O)NCCCC[C@H](NC(=O)[C@@H](Cc2c[nH]c3ccccc23)NC(=O)[C@H](CC(C)C)NC(=O)[C@H](CC(=O)O)NC(C)=O)C(=O)N[C@@H](CO)C(=O)N[C@@H]([C@@H](C)CC)C(=O)N[C@@H](CCC(N)=O)C(=O)N1)C(=O)N[C@@H](C)C(=O)N[C@@H](CCC(=O)O)C(=O)N[C@H](C(=O)N[C@@H](Cc1c[nH]cn1)C(=O)N[C@H](C(=O)N[C@@H](C)C(N)=O)[C@@H](C)O)[C@@H](C)CC
- Ki: 3.6 ± 0.8 nM

SMILES: CC[C@H](C)[C@H](NC(=O)[C@H](CC(C)C)NC(=O)[C@H](Cc1c[nH]cn1)NC(=O)[C@H](Cc1c[nH]cn1)NC(=O)[C@H](CC(C)C)NC(=O)[C@H](Cc1ccccc1)NC(=O)[C@H](Cc1ccccc1)NC(=O)[C@H](CCCNC(=N)N)NC(=O)[C@H](CCCNC(=N)N)NC(=O)[C@H](CCCNC(=N)N)NC(=O)[C@H](CC(C)C)NC(=O)[C@@H]1CC(=O)NCCCC[C@H](NC(=O)[C@@H](Cc2c[nH]c3ccccc23)NC(=O)[C@H](CC(C)C)NC(=O)[C@H](CC(=O)O)NC(=O)[C@H](Cc2c[nH]cn2)NC(=O)[C@H](CC(C)C)NC(=O)[C@@H](N)CC(C)C)C(=O)N[C@@H](CO)C(=O)N[C@@H]([C@@H](C)CC)C(=O)N[C@@H](CCC(N)=O)C(=O)N1)C(=O)N[C@@H](C)C(=O)N[C@@H](CCC(=O)O)C(=O)N[C@H](C(=O)N[C@@H](Cc1c[nH]cn1)C(=O)N[C@H](C(=O)N[C@@H](C)C(N)=O)[C@@H](C)O)[C@@H](C)CC
- Ki: 3.2 ± 1 nM
